The structures appear in SMILES notation.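 Grown in 96-well plates, cells were treated for 48 hours with each compound at five concentrations. Insufficient inhibition: endpoint recorded as highest concentration tested. GI50 = concentration required for 50% inhibition of growth. TGI denotes the concentration required for complete inhibition of growth.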

The record followed here is PubChem BioAssay (NCI).

Test systems include T-47D breast; RXF 393 renal; SN12C renal; KM12 colon; MDA-MB-231 breast; TK-10 renal; SK-MEL-2 melanoma; HOP-62 NSCLC; A498 renal; HCC-2998 colon.
Holding throughout (assay): NCI anticancer screen, dose series, 48 h

`COc1cc2c(cc1OC)-c1ncc3cc(OC)c(OC)cc3c1C2`: the GI50 with T-47D breast, with RXF 393 renal, in the assay on SN12C renal, in the assay on KM12 colon, in the assay on MDA-MB-231 breast and with TK-10 renal was above 50 µM throughout. The GI50 in the assay with SK-MEL-2 melanoma was above 50 µM. Also, the TGI in the assay with T-47D breast, with RXF 393 renal, in the assay on SN12C renal, with KM12 colon, in the assay with MDA-MB-231 breast and in the assay on TK-10 renal was above 50 µM throughout. This compound displayed a TGI with SK-MEL-2 melanoma above 50 µM.
Take `Cc1nc2ccccc2c(/C=C/c2ccccc2)c1C(=O)/C=C/c1ccccc1`: the GI50 in the assay with RXF 393 renal was 1.78 µM; in the assay with HOP-62 NSCLC, 1.9 µM; in the assay on A498 renal, 1.83 µM; with SN12C renal, 1.9 µM; with KM12 colon it was 1.97 µM; in the assay on MDA-MB-231 breast, 2.3 µM. Further, the GI50 in the assay with HCC-2998 colon is 1.86 µM; in the assay with TK-10 renal, 2.58 µM; with SK-MEL-2 melanoma it was 1.92 µM. For the same compound, the TGI is 3.22 µM with RXF 393 renal; 4.1 µM in the assay with HOP-62 NSCLC; 3.46 µM with A498 renal; 4.07 µM in the assay with SN12C renal; 4.7 µM with KM12 colon; 7.37 µM in the assay with MDA-MB-231 breast. Also, the TGI came to 3.53 µM in the assay on HCC-2998 colon, 6.81 µM in the assay on TK-10 renal and 4.08 µM in the assay on SK-MEL-2 melanoma.
In the case of `CNC(=S)N(C1CCCCC1)C1CCCCC1`, the TGI in the assay with T-47D breast, in the assay on RXF 393 renal, with HOP-62 NSCLC, in the assay with SN12C renal, in the assay with KM12 colon and with MDA-MB-231 breast was above 100 µM throughout. Also, the TGI in the assay with HCC-2998 colon, with TK-10 renal and in the assay with SK-MEL-2 melanoma was above 100 µM throughout.
For `O=C(Nc1ccc(N2CCNCC2)cn1)c1[nH]ncc1Nc1ncnc2sccc12`, the GI50 in the assay with RXF 393 renal was 3.32 µM; in the assay with HOP-62 NSCLC, 2.99 µM; in the assay with A498 renal, 13.4 µM; in the assay on SN12C renal, 4.27 µM; in the assay with KM12 colon, 3.31 µM; with MDA-MB-231 breast, 1.68 µM. Moreover, the GI50 in the assay with HCC-2998 colon was 12.7 µM; in the assay with TK-10 renal it was 3.62 µM; in the assay on SK-MEL-2 melanoma it was 7.72 µM. Besides, the TGI with RXF 393 renal was 18.8 µM; in the assay on HOP-62 NSCLC it was 14.7 µM; in the assay on A498 renal, 31.5 µM; with SN12C renal, 18.8 µM; in the assay with KM12 colon it was 11.5 µM; in the assay on MDA-MB-231 breast, 3.36 µM. Besides, the TGI in the assay with HCC-2998 colon came to 32.1 µM; with TK-10 renal it was 14.8 µM; in the assay on SK-MEL-2 melanoma, 25.9 µM.
`C#CCN(Cc1nc2cc(C(F)(F)F)ccc2nc1-c1ccccc1)c1ccc(F)cc1`: the GI50 was 20.8 µM in the assay on T-47D breast; 41 µM with RXF 393 renal; 34.7 µM with HOP-62 NSCLC; 38 µM with A498 renal; 30.8 µM in the assay with SN12C renal; 21.3 µM in the assay with KM12 colon. Moreover, the GI50 with MDA-MB-231 breast is 21.6 µM; with TK-10 renal, 19.2 µM. In addition, the TGI in the assay with T-47D breast was above 100 µM; in the assay with RXF 393 renal, above 100 µM; in the assay with HOP-62 NSCLC, above 100 µM; in the assay on A498 renal it was 92.8 µM; in the assay on SN12C renal, 96 µM; in the assay on KM12 colon it was 60.9 µM. For the same compound, the TGI in the assay on MDA-MB-231 breast stood at 56.8 µM; in the assay with TK-10 renal, 59 µM.
As to `CN1CCN(c2ccc(-c3cccc(CN4CCOCC4)c3)cc2NC(=O)c2c[nH]c(=O)cc2C(F)(F)F)CC1`, the GI50 in the assay on T-47D breast is 31.3 µM; in the assay on RXF 393 renal, 23.1 µM; in the assay with HOP-62 NSCLC, above 100 µM; in the assay with SN12C renal, above 100 µM; with KM12 colon, 46.8 µM; with MDA-MB-231 breast, 16.3 µM. Further, the GI50 was above 100 µM with HCC-2998 colon, 68.7 µM in the assay with TK-10 renal and 27.3 µM in the assay with SK-MEL-2 melanoma. The TGI was above 100 µM in the assay on T-47D breast; above 100 µM with RXF 393 renal; above 100 µM in the assay on HOP-62 NSCLC; above 100 µM in the assay with SN12C renal; above 100 µM in the assay on KM12 colon; 54.6 µM in the assay with MDA-MB-231 breast. Moreover, the TGI in the assay with HCC-2998 colon is above 100 µM; in the assay on TK-10 renal it was above 100 µM; in the assay with SK-MEL-2 melanoma, 72 µM.
As for `O=c1c(-c2nc3ccccc3[nH]2)cc2ccccc2n1Cc1cn(Cc2ccccc2Cl)nn1`, the GI50 is 2.85 µM with T-47D breast; 1.87 µM with SN12C renal; 2.5 µM in the assay with KM12 colon; 1.71 µM in the assay with MDA-MB-231 breast; 4.19 µM in the assay with HCC-2998 colon; 2.52 µM in the assay with TK-10 renal. For the same compound, the GI50 in the assay on SK-MEL-2 melanoma is 3.07 µM. The TGI is 9.88 µM in the assay on T-47D breast; 3.75 µM with SN12C renal; 7.72 µM in the assay on KM12 colon; 3.79 µM in the assay with MDA-MB-231 breast; 37.4 µM in the assay on HCC-2998 colon; 6.65 µM with TK-10 renal. This compound also showed a TGI in the assay on SK-MEL-2 melanoma of 10.8 µM.
As for `COc1cc(=O)oc(/C=C/C=C/C=C/C(C)=C\C2(C)OC(C)C(C)(O)C2O)c1C` (stereo not drawn), the TGI in the assay on T-47D breast, in the assay on HOP-62 NSCLC, in the assay on A498 renal, in the assay on SN12C renal, with KM12 colon and with MDA-MB-231 breast was above 100 µM throughout. Moreover, the TGI in the assay with TK-10 renal and with SK-MEL-2 melanoma was above 100 µM each time.
With `COc1ccc(C(=O)c2cc(C)c(OC)c(C)c2)c(OC)c1N(C(=O)CCl)C(=O)CCl`, the GI50 is 0.0445 µM in the assay with T-47D breast; 0.0546 µM with HOP-62 NSCLC; 0.0244 µM with A498 renal; 0.0831 µM with SN12C renal; 0.0421 µM in the assay on KM12 colon; 0.149 µM in the assay on MDA-MB-231 breast. Also, the GI50 in the assay with HCC-2998 colon was 0.0803 µM; with TK-10 renal, 13.4 µM; with SK-MEL-2 melanoma it was 0.0522 µM. The TGI with T-47D breast amounted to 44.4 µM; with HOP-62 NSCLC, 25 µM; with A498 renal it was 0.103 µM; with SN12C renal, 20.9 µM; in the assay on KM12 colon, 6.07 µM; with MDA-MB-231 breast, 18.9 µM. The figures for the TGI with HCC-2998 colon, in the assay on TK-10 renal and with SK-MEL-2 melanoma were 7.35 µM, above 100 µM and 19.7 µM, respectively.
Consider `N#CC(C(=O)O)C(c1c(Cl)cccc1Cl)C(C#N)C(=O)O` (stereo not drawn), for which the TGI in the assay with T-47D breast, in the assay on HOP-62 NSCLC, in the assay on A498 renal, in the assay on SN12C renal, in the assay on KM12 colon and in the assay with MDA-MB-231 breast was above 100 µM each time. Also, the TGI with TK-10 renal and in the assay on SK-MEL-2 melanoma was above 100 µM throughout.
In the case of `C[C@@]1(O)CCC[C@H]1n1c(=O)c(C(F)F)cc2cnc(NC3CCN(S(C)(=O)=O)CC3)nc21`, the GI50 in the assay with T-47D breast was 1.29 µM; with RXF 393 renal it was 1.24 µM; in the assay on HOP-62 NSCLC it was 2.03 µM; in the assay with SN12C renal it was 2.66 µM; in the assay with KM12 colon it was 1.8 µM; in the assay with MDA-MB-231 breast it was 1.14 µM. For the same compound, the GI50 is 0.539 µM in the assay with HCC-2998 colon, 1.21 µM in the assay with TK-10 renal and 2.28 µM in the assay on SK-MEL-2 melanoma. The TGI in the assay on T-47D breast was above 100 µM; in the assay on RXF 393 renal, 2.9 µM; in the assay on HOP-62 NSCLC, above 100 µM; with SN12C renal it was above 100 µM; in the assay with KM12 colon it was above 100 µM; in the assay with MDA-MB-231 breast, 7.04 µM. Also, the results for the TGI in the assay with HCC-2998 colon, in the assay on TK-10 renal and in the assay with SK-MEL-2 melanoma were above 100 µM, above 100 µM and 6.34 µM, respectively.
For `CC1(C)OC2COC(c3[nH]nc4c(=O)[nH]c(=O)[nH]c34)C2O1` (stereo not drawn), the TGI in the assay with T-47D breast, in the assay with RXF 393 renal, with HOP-62 NSCLC, in the assay with A498 renal, in the assay with SN12C renal and in the assay with KM12 colon was above 100 µM in each case. Further, the TGI in the assay with MDA-MB-231 breast, in the assay with TK-10 renal and in the assay with SK-MEL-2 melanoma was above 100 µM throughout.
Turning to `S=C1SCN(C2CCCCCCCCCCC2)CN1C1CCCCCCCCCCC1`, the TGI in the assay with T-47D breast, with RXF 393 renal, in the assay on HOP-62 NSCLC, in the assay with A498 renal, with SN12C renal and in the assay with KM12 colon was above 100 µM each time. Besides, the TGI in the assay with MDA-MB-231 breast, with TK-10 renal and in the assay on SK-MEL-2 melanoma was above 100 µM each time.
As for `COc1ccc2c(c1)c(-c1ccc(-c3cn(C)c4ccc(OC)cc34)o1)cn2C`, the GI50 in the assay on T-47D breast was 2.72 µM; in the assay on RXF 393 renal, 10.4 µM; in the assay with HOP-62 NSCLC, above 100 µM; with A498 renal, above 100 µM; in the assay on SN12C renal, 21.6 µM; with KM12 colon, 2.73 µM. Further, the GI50 in the assay on MDA-MB-231 breast was 2.37 µM; with TK-10 renal it was 11 µM; with SK-MEL-2 melanoma it was 2.13 µM. For the same compound, the TGI in the assay with T-47D breast was 11.4 µM; in the assay on RXF 393 renal, 44 µM; in the assay with HOP-62 NSCLC, above 100 µM; in the assay on A498 renal, above 100 µM; in the assay on SN12C renal, above 100 µM; in the assay on KM12 colon it was 7.08 µM. Moreover, the TGI in the assay on MDA-MB-231 breast is 22.2 µM; in the assay on TK-10 renal, above 100 µM; in the assay with SK-MEL-2 melanoma, 5.28 µM.
Turning to `COc1cc2c(cc1OC)-c1ncc3cc(OC)c(OC)c(OC)c3c1C2`, the GI50 was above 100 µM in the assay on T-47D breast; 23.2 µM with RXF 393 renal; 34.8 µM in the assay on HOP-62 NSCLC; 14.4 µM in the assay on SN12C renal; 17.9 µM in the assay with KM12 colon; 2.54 µM with MDA-MB-231 breast. In addition, the values for the GI50 with HCC-2998 colon, in the assay with TK-10 renal and in the assay on SK-MEL-2 melanoma were 26 µM, 27.7 µM and 21.7 µM, respectively. For the same compound, the TGI is above 100 µM in the assay with T-47D breast; 85.8 µM in the assay with RXF 393 renal; 86.7 µM in the assay on HOP-62 NSCLC; 47.9 µM with SN12C renal; 95.1 µM with KM12 colon; 48.7 µM in the assay on MDA-MB-231 breast. Also, the TGI in the assay with HCC-2998 colon was 95.8 µM; in the assay with TK-10 renal, above 100 µM; in the assay on SK-MEL-2 melanoma, 73.9 µM.
